Consider 21 molecules from patent US20240398811A1, “PRC2 INHIBITORS FOR USE IN TREATING BLOOD DISORDERS” (ORIC Pharmaceuticals, Inc., priority 2021, published 2024).

SMILES strings stand for the structures.

purified human, His-tagged PRC2 complex, sequence (O75530 whole entry): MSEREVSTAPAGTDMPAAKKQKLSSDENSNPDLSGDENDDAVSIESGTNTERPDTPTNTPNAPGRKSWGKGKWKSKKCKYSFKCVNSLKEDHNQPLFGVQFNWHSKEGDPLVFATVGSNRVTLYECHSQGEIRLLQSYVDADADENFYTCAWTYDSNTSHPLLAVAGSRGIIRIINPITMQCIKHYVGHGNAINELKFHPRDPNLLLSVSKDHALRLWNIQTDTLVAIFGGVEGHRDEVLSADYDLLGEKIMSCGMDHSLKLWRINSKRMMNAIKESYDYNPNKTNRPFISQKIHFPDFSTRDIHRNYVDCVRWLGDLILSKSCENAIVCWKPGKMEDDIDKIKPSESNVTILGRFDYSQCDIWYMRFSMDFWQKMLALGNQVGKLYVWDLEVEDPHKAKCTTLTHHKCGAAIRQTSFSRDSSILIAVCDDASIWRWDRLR
purified human, His-tagged PRC2 complex, sequence (Q15910 whole entry partner): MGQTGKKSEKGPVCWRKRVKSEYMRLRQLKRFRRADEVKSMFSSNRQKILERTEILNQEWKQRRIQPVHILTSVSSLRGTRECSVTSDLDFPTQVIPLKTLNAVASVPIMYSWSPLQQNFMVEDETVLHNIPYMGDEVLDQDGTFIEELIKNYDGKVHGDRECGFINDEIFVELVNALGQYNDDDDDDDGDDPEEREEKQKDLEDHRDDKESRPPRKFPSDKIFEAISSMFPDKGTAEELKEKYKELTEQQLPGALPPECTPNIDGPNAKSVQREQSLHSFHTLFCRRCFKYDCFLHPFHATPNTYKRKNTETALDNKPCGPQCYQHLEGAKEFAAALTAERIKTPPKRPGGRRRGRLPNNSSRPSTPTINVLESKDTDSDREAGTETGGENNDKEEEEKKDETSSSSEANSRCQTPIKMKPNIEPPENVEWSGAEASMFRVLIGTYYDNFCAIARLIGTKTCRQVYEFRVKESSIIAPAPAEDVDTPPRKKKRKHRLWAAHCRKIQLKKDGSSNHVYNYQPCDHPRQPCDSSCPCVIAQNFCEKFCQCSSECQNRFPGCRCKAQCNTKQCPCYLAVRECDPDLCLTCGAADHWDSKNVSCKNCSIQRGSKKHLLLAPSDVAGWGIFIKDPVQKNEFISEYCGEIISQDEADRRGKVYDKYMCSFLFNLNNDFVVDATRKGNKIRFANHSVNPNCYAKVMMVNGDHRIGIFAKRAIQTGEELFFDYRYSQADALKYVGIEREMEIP
purified human, His-tagged PRC2 complex, sequence (Q15022 whole entry partner): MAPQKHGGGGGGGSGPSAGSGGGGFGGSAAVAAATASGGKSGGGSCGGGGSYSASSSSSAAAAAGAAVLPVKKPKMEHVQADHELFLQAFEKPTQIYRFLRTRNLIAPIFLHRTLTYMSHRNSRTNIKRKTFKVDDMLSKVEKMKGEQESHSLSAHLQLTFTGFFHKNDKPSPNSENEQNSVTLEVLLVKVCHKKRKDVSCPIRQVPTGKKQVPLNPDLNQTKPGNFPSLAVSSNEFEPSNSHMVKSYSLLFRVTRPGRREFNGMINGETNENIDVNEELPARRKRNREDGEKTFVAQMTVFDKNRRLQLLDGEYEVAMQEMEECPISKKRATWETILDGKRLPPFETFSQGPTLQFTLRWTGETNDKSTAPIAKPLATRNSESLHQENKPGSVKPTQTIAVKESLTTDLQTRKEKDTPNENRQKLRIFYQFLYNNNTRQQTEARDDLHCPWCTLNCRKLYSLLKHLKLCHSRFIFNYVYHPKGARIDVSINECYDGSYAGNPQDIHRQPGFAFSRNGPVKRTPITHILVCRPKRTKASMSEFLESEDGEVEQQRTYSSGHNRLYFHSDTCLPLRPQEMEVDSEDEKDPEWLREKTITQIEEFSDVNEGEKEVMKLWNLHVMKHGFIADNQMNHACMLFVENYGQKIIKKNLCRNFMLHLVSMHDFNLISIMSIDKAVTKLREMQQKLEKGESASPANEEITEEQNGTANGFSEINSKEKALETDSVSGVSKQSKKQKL
purified human, His-tagged PRC2 complex, sequence (Q6ZN18 whole entry partner): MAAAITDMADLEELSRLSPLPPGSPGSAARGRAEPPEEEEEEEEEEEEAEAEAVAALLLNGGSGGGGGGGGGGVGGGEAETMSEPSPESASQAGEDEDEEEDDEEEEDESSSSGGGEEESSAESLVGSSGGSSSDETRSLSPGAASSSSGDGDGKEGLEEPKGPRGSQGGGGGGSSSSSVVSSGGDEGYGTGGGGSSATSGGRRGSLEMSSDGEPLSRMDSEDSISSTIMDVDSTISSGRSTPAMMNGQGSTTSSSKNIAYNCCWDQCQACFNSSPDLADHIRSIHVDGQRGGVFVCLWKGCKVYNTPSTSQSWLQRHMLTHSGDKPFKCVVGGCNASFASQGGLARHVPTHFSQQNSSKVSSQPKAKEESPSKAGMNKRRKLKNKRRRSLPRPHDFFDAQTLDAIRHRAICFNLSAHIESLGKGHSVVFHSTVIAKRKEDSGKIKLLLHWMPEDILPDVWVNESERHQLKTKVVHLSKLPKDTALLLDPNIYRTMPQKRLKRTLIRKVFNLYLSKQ
purified human, His-tagged PRC2 complex, sequence (Q09028 whole entry partner): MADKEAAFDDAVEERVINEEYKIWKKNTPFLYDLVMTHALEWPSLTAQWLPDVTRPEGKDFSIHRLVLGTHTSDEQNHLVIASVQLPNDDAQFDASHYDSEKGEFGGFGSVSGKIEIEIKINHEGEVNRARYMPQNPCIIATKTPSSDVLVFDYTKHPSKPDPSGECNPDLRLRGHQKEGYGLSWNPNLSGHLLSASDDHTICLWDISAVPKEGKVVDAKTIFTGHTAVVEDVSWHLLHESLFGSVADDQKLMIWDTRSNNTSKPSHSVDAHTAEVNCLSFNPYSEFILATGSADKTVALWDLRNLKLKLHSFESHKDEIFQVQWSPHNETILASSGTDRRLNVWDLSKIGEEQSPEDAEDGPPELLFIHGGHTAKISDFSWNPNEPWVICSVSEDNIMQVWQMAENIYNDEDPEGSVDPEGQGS

For the test, the target named is purified human, His-tagged PRC2 complex (Homo sapiens (Human), UniProt O75530). As to the kind of experiment: Hot Spot HMT assay, inhibition of PRC2 enzymatic activity. Format: biochemical. Particulars: 10 nM PRC2 complex, 1 μM 3H-SAM, core histone H3, 10-point dose-response. The procedure, abridged:
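Five-subunit PRC2 complex (EZH2, EED, SUZ12, AEBP2, RbAp48; 10 nM) preincubated 20 min at 30° C with compound (top 1.0 μM) and 0.05 mg/ml core histone H3 in Tris-HCl, 1% DMSO. Started with 1 μM [3H]SAM, 1 hr at 30° C; tritiated H3 measured by filter binding and scintillation.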
In the case of `N#Cc1cn2c(NCc3c(F)ccc4c3CCO4)ncc(-c3cnn4c3CCC4)c2n1` [Example 80, 8-(5,6-dihydro-4H-pyrrolo[1,2-b]pyrazol-3-yl)-5-(((5-fluoro-2,3-dihydrobenzofuran-4-yl)methyl)amino)imidazo[1,2-c]pyrimidine-2-carbonitrile], the IC50 (commonly the midpoint of a concentration-inhibition curve) is below 100 nM.
Molecule `N#Cc1cn2c(NCc3c(F)ccc4c3CCO4)ncc(-c3cccnc3)c2n1` [Example 100, 5-(((5-fluoro-2,3-dihydrobenzofuran-4-yl)methyl)amino)-8-(pyridin-3-yl)imidazo[1,2-c]pyrimidine-2-carbonitrile] came in with an IC50 below 100 nM.
The result for `CN(C)C(=O)c1ccc(-c2cnc(NCc3c(F)ccc4c3CCO4)n3cc(C#N)nc23)c(Cl)c1F` [Example 34, 3-chloro-4-(2-cyano-5-(((5-fluoro-2,3-dihydrobenzofuran-4-yl)methyl)amino)imidazo[1,2-c]pyrimidin-8-yl)-2-fluoro-N,N-dimethylbenzamide] reads below 100 nM; that for `Cc1cc(CN(C)C)ccc1-c1cnc(NCc2c(F)ccc3c2C(O)CO3)n2cc(C#N)nc12` (stereo not drawn) [Example 207, 8-(4-((dimethylamino)methyl)-2-methylphenyl)-5-(((5-fluoro-3-hydroxy-2,3-dihydrobenzofuran-4-yl)methyl)amino)imidazo[1,2-c]pyrimidine-2-carbonitrile], below 100 nM.
Molecule `Cc1nc(OC(C)C)ncc1-c1cnc(NCc2c(F)ccc3c2CCO3)n2cc(C#N)nc12` [Example 89, 5-(((5-fluoro-2,3-dihydrobenzofuran-4-yl)methyl)amino)-8-(2-isopropoxy-4-methylpyrimidin-5-yl)imidazo[1,2-c]pyrimidine-2-carbonitrile] registered an IC50 below 100 nM.
The result for `CC(C)(O)Cn1cc(-c2cnc(NCc3c(F)ccc4c3CCO4)n3cc(C#N)nc23)cn1` [Example 121, 5-(((5-fluoro-2,3-dihydrobenzofuran-4-yl)methyl)amino)-8-(1-(2-hydroxy-2-methylpropyl)-1H-pyrazol-4-yl)imidazo[1,2-c]pyrimidine-2-carbonitrile] reads below 100 nM.
The result for `N#Cc1cn2c(NCc3c(F)ccc4c3CCO4)ncc(-c3ccccn3)c2n1` [Example 146, 5-(((5-fluoro-2,3-dihydrobenzofuran-4-yl)methyl)amino)-8-(pyridin-2-yl)imidazo[1,2-c]pyrimidine-2-carbonitrile] reads 100 to 500 nM; that for `COC(=O)c1ccc(-c2cnc(NCc3c(F)ccc4c3CCO4)n3cc(C#N)nc23)cc1` [Example 167, methyl 4-(2-cyano-5-(((5-fluoro-2,3-dihydrobenzofuran-4-yl)methyl)amino)imidazo[1,2-c]pyrimidin-8-yl)benzoate], 100 to 500 nM.
`Cc1ncc(-c2cnc(NCc3c(F)ccc4c3CCO4)n3cc(C#N)nc23)cc1N` [Example 129, 8-(5-amino-6-methylpyridin-3-yl)-5-(((5-fluoro-2,3-dihydrobenzofuran-4-yl)methyl)amino)imidazo[1,2-c]pyrimidine-2-carbonitrile] gave an IC50 below 100 nM.
As for `N#Cc1cn2c(NCc3c(F)ccc4c3CCO4)ncc(-c3cnc(N)c(C(F)(F)F)c3)c2n1` [Example 134, 8-(6-amino-5-(trifluoromethyl)pyridin-3-yl)-5-(((5-fluoro-2,3-dihydrobenzofuran-4-yl)methyl)amino)imidazo[1,2-c]pyrimidine-2-carbonitrile], the IC50 is 100 to 500 nM.
The molecule `CN(C)C(=O)c1ccc(-c2cnc(NCc3c(F)ccc4c3CCO4)n3cc(C#N)nc23)cc1F` [Example 36, 4-(2-cyano-5-(((5-fluoro-2,3-dihydrobenzofuran-4-yl)methyl)amino)imidazo[1,2-c]pyrimidin-8-yl)-2-fluoro-N,N-dimethylbenzamide] showed an IC50 below 100 nM.
`N#Cc1cn2c(NCc3c(F)ccc4c3CCO4)ncc(-c3cccc(C(=O)O)c3)c2n1` [Example 174, 3-(2-cyano-5-(((5-fluoro-2,3-dihydrobenzofuran-4-yl)methyl)amino)imidazo[1,2-c]pyrimidin-8-yl)benzoic acid] registered an IC50 below 100 nM.
Then `CN1CCN(C(=O)c2cc(-c3cnc(NCc4c(F)ccc5c4CCO5)n4cc(C#N)nc34)n(C)n2)CC1` [Example 229, 5-(((5-fluoro-2,3-dihydrobenzofuran-4-yl)methyl)amino)-8-(1-methyl-3-(4-methylpiperazine-1-carbonyl)-1H-pyrazol-5-yl)imidazo[1,2-c]pyrimidine-2-carbonitrile], with below 100 nM; and `Cc1nc(-c2cnc(NCc3c(F)ccc4c3CCO4)n3cc(C#N)nc23)c(C)s1` [Example 145, 8-(2,5-dimethylthiazol-4-yl)-5-(((5-fluoro-2,3-dihydrobenzofuran-4-yl)methyl)amino)imidazo[1,2-c]pyrimidine-2-carbonitrile], with 100 to 500 nM; and `CN(C)CCCn1cc(-c2cnc(NCc3c(F)ccc4c3CCO4)n3cc(C#N)nc23)cn1` [Example 103, 8-(1-(3-(dimethylamino)propyl)-1H-pyrazol-4-yl)-5-(((5-fluoro-2,3-dihydrobenzofuran-4-yl)methyl)amino)imidazo[1,2-c]pyrimidine-2-carbonitrile], with 100 to 500 nM.
Then `Cc1nc(N2CCN(C)CC2)ccc1-c1cnc(NCc2c(F)ccc3c2CCO3)n2cc(C#N)nc12` [Example 136, 5-(((5-fluoro-2,3-dihydrobenzofuran-4-yl)methyl)amino)-8-(2-methyl-6-(4-methylpiperazin-1-yl)pyridin-3-yl)imidazo[1,2-c]pyrimidine-2-carbonitrile], with 100 to 500 nM; and `N#Cc1cn2c(NCc3c(F)ccc4c3CCO4)ncc(-c3cnn(C4CCCCO4)c3)c2n1` (stereo not drawn) [Example 118, 5-(((5-fluoro-2,3-dihydrobenzofuran-4-yl)methyl)amino)-8-(1-(tetrahydro-2H-pyran-2-yl)-1H-pyrazol-4-yl)imidazo[1,2-c]pyrimidine-2-carbonitrile], with below 100 nM; and `Cc1cc(C(=O)N(C)C)c(F)cc1-c1cnc(NCc2c(F)ccc3c2CCO3)n2cc(C#N)nc12` [Example 43, 4-(2-cyano-5-(((5-fluoro-2,3-dihydrobenzofuran-4-yl)methyl)amino)imidazo[1,2-c]pyrimidin-8-yl)-2-fluoro-N,N,5-trimethylbenzamide], with below 100 nM.
For the molecule `CS(=O)(=O)c1ccc(-c2cnc(NCc3c(F)ccc4c3CCO4)n3cc(C#N)nc23)cc1` [Example 73, 5-(((5-fluoro-2,3-dihydrobenzofuran-4-yl)methyl)amino)-8-(4-(methylsulfonyl)phenyl)imidazo[1,2-c]pyrimidine-2-carbonitrile], the IC50 was below 100 nM.
Then `Cc1nc(C2CC2)ncc1-c1cnc(NCc2c(F)ccc3c2CCO3)n2cc(C(N)=O)nc12` [Example 15, 8-(2-cyclopropyl-4-methylpyrimidin-5-yl)-5-(((5-fluoro-2,3-dihydrobenzofuran-4-yl)methyl)amino)imidazo[1,2-c]pyrimidine-2-carboxamide], with 100 to 500 nM; and `Cc1cc(CN(C)C)c(F)cc1-c1cnc(NCc2c(F)ccc3c2CCO3)n2cc(C#N)nc12` [Example 84, 8-(4-((dimethylamino)methyl)-5-fluoro-2-methylphenyl)-5-(((5-fluoro-2,3-dihydrobenzofuran-4-yl)methyl)amino)imidazo[1,2-c]pyrimidine-2-carbonitrile], with 100 to 500 nM.
